Experimental data as given in patent US8609862B2, “Use of an adrenal hormone-modifying agent” (Novartis AG, priority 2010, dated 2013).

These molecules were tested against T1, Human CYP11B1 (Homo sapiens, UniProt P15538) (assay: In vitro human CYP11B1 assay). Details: V79-4 cell homogenate, 11-deoxycortisol to cortisol, SPA.
T1 construct: made in house; host or cells: V79-4 cell line #618 (stably selected with geneticin and hygromycin); sonicated homogenate, 500 x g supernatant
T1 sequence (P15538 25-503): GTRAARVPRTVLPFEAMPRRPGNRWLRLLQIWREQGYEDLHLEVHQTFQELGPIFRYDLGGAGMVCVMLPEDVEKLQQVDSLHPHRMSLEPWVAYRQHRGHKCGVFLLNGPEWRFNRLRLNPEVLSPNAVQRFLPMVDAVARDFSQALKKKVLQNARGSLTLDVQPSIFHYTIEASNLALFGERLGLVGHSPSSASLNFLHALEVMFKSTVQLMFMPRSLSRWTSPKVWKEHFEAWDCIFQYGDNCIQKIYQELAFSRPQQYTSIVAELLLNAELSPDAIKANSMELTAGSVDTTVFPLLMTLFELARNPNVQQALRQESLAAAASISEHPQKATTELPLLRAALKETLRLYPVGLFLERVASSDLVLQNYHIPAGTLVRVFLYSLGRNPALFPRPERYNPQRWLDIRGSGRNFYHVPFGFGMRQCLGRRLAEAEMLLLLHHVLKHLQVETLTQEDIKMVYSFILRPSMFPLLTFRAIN
Format: biochemical
Text: Complete EDTA-free protease inhibitor tablets were obtained from Roche Applied Science (Indianapolis, Ind.). Dulbecco's modified Eagle medium (DMEM), antibiotic, geneticin, hygromycin, and fetal bovine serum (FBS) were products of Invitrogen (Carlsbad, Calif.). NADPH Regeneration Solution A and Solution B were purchased from BD Biosciences Clontech (Palo Alto, Calif.). Anti-mouse PVT SPA beads and [1,2,6,7-^3H(N)]hydrocortisone were acquired from Amersham (Piscataway, N.J.) and PerkinElmer (Boston, Mass.), respectively.
Following 4 days of growth, cells were washed once with PBS, scraped and collected in PBS, and centrifuged at 1,300 rpm for 6 min. […] The sonication procedure was repeated 3 more times, with a 5 min rest on ice between sonications. The sonicated material was then spun at 500×g for 4 min to remove unbroken cells. The supernatant was brought to a final glycerol concentration of 5%, flash-frozen in liquid nitrogen, and stored at −80° C.
The CYP11B1 assays were performed in 96-well U-bottom non-tissue-culture-treated plates. […] Plates were then centrifuged at 2,400 rpm for 6 min, and 50 μl of supernatant was removed for measurement of cortisol content by scintillation proximity assay (SPA). Measurement of cortisol was performed using a 96-well plate format. […] Anti-mouse PVT SPA beads (50 μl) were then added to each well and incubated overnight at room temperature prior to counting in a Microbeta plate counter. The amount of cortisol in each sample was calculated by comparing with a standard curve generated using known quantities of the hormone. Full concentration-response curves of an inhibitor were performed at least 3 times. The IC50 values were derived using a non-linear least squares curve-fitting program from IDBS XLfit.

IC50 [nM]	Structure (SMILES)
0.2	N#Cc1ccc(C2CCCCc3cncn32)c(Br)c1 (racemic) [3-bromo-4-(6,7,8,9-tetrahydro-5H-imidazo[1,5-a]azepin-5-yl)benzonitrile racemate, 3-bromo-4-(6,7,8,9-tetrahydro-5H-imidazo[1,5-a]azepin-5-yl)benzonitrile]
0.3	N#Cc1ccc(C2CCCCc3cncn32)c(-c2ccc(F)cc2)c1 (single isomer, unassigned) [4′-fluoro-6-(6,7,8,9-tetrahydro-5H-imidazo[1,5-a]azepin-5-yl)biphenyl-3-carbonitrile]
0.8	COc1ccc(CN(C)C(=O)C2(c3ccc(C#N)cc3Cl)CCc3cncn32)cc1 (stereo not drawn) [5-(2-chloro-4-cyanophenyl)-N-(4-methoxybenzyl)-N-methyl-6,7-dihydro-5H-pyrrolo[1,2-c]imidazole-5-carboxamide]
